Experimental data as given in patent US4330557A, “Acyl-carnitine and use thereof in parenteral administration of triglycerides” (priority 1980, dated 1982).

Experiment: general statement on activity and toxicity of carnitine stereoisomers and acyl-carnitine

Row | Structure (SMILES) | toxicity of carnitine isomer (D-isomer versus other isomer) | activity of carnitine isomer (L-isomer versus other isomer)
1 | C[N+](C)(C)C[C@@H](O)CC(=O)[O-] [D-carnitine] | slightly more toxic | –
2 | C[N+](C)(C)C[C@H](O)CC(=O)[O-] [L-carnitine] | – | more active
